Experimental data reported in patent US20260376293A1, “METHODS FOR STUDYING GPR158 PHARMACOLOGY AND IDENTIFICATION OF ITS LIGANDS” (UNIVERSITY OF FLORIDA RESEARCH FOUNDATION, INCORPORATED, priority 2022, published 2026).
Read-outs that look alike come from different tables or passages of the source.

Target: T1, GPR158 (Homo sapiens, UniProt Q5T848)
T1 construct: GPR158 AC2 (1-775) was expressed and purified; Flag; made in house; host or cells: HEK293 GnTI- (BacMam virus)
T1 sequence (Q5T848 24-775): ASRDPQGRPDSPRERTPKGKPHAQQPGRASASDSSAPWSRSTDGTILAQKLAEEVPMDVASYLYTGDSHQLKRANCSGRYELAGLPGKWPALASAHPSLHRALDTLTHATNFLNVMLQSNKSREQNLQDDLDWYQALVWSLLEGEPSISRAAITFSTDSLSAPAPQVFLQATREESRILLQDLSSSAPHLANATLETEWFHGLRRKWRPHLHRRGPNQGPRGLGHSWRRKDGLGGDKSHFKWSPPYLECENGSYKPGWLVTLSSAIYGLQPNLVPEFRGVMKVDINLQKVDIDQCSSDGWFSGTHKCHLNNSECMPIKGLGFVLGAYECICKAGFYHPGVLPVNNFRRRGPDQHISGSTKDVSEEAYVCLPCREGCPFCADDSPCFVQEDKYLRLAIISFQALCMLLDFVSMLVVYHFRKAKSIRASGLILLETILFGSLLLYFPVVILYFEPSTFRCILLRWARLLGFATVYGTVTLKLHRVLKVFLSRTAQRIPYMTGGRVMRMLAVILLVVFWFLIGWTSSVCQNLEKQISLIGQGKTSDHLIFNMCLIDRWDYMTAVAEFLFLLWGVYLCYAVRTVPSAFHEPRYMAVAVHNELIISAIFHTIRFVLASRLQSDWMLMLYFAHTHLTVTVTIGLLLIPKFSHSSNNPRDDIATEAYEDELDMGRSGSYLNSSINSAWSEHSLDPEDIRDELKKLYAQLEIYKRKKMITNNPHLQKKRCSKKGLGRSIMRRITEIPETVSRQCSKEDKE
Test: Isothermal Titration calorimetry (ITC) with purified GPR158
Assay type: binding
Conditions: purified GPR158-AC2, 23 °C
Method: FIGS. 9A-9H. Direct interaction of glycine with GPR158 A) Schematics of assay design for detecting glycine binding to GPR158 by flow cytometry. Cells transfected with GPR158 are incubated with FITC-glycine and fluorescence labeling of cells is detected by flow cytometry. B) Representative flow cytometry histogram showing distribution of cellular populations after sorting. C) Quantification of FITC-glycine binding detected in flow cytometry binding experiments. The median of fluorescence (MFI) is quantified and plotted. Error bars are s.e.m. values, N=3, **p<0.01, ****p<0.0001, two-way ANOVA. D) Schematics of the radioligand binding assay. E) Quantification of ^3H-glycine binding to membrane expressing GPR158. Count Per minute (CPM) are measured and plotted. Data shown mean of 4 independent experiments error bars are s.e.m. values, n=4. […] Data shown mean of 4 independent experiments error bars are s.e.m. values, n=4. G) Schematics of the assay design detecting glycine binding to GPR158 by Isothermal Titration calorimetry (ITC) with purified protein. H) Representative ITC binding profile showing glycine binding to GPR158. Control (thick line), GPR158 (thin line) I) Quantification of binding determined by fitting the integrated isotherm to an independent binding model.
FIGS. 10A-10D. Binding of Glycine to GPR158 in ITC experiments. […]

Kd (mean of 4 experimental runs, independent binding model, read-out: KD (ITC, mean)): 7.76 ± 3.66 µM | Kd (range across experiments, read-out: binding constants (KD) across experiments): 2 to 16 µM
SMILES: NCC(=O)O [glycine]
